Data taken from the supplement of paper PMC11061612.

Key:
[1] = tested on: U-698-M; experiment: combination Emax (second highest fraction inhibited in the dose matrix, 72 h); higher = more inhibition; details: B-Cell Non-Hodgkin's Lymphoma
Procedure, shortened: (§1)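 After 24 hours at 37°C and 5% CO2 in 1536-well plates, cells in DMEM/F12 or RPMI plus 10% FBS received two-drug dose matrices for 72 hours. Viability came from CellTiter-Glo 2.0 luminescence and was scaled as inhibition, anchored at 0 by vehicle wells and at 1 by blank wells. Combination Emax is taken as the second-highest inhibition in the matrix, and Bliss excess as the observed combination effect less EA + EB − EA·EB, with EA and EB the single-agent effects.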

[2] = tested on: U-698-M; experiment: Bliss excess, mean over the matrix (fraction); higher = more synergy; details: U-[…], B-Cell Non-Hodgkin's Lymphoma
Procedure, shortened: as §1

[3] = first compound max 1 µM, partner max 1 µM
[4] = first compound max 10 µM, partner max 10 µM, 7x7
[5] = first compound max 1 µM, partner max 1 µM, 7x7
[6] = first compound max 10 µM, partner max 0.3 µM, 7x7
[7] = first compound max 0.3 µM, partner max 1 µM, 7x7
[8] = first compound max 10 µM, partner max 1 µM, 7x7
[9] = first compound max 3 µM, partner max 3 µM
[10] = first compound max 1 µM, partner max 3 µM, 7x7
[11] = first compound max 1 µM, partner max 10 µM, 7x7
[12] = first compound max 0.001 µM, partner max 10 µM, 7x7
[13] = first compound max 10 µM, partner max 2 µM, 7x7
[14] = first compound max 2 µM, partner max 1 µM, 7x7
[15] = first compound max 1 µM, partner max 0.3 µM, 7x7
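Throughout, for Bliss excess, mean over the matrix: after 72 h of two-drug dosing.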

In the case of `N#Cc1cnc(Nc2cc(NC[C@H]3CNCCO3)c(C(F)(F)F)cn2)cn1` [SRA737] + C=CCn1c(=O)c2cnc(Nc3ccc(N4CCN(C)CC4)cc3)nc2n1-c1cccc(C(C)(C)O)n1 [AZD1775], the “combination Emax” value ([1]; first compound max 10 µM, partner max 1 µM, may be a limit of the assay) is reported as 1 and the Bliss excess ([2]; first compound max 10 µM, partner max 1 µM) is reported as 0.0975.

`CCN(CCO)CCCOc1ccc2c(Nc3cc(CC(=O)Nc4cccc(F)c4)[nH]n3)ncnc2c1` [AZD2811] + C=CCn1c(=O)c2cnc(Nc3ccc(N4CCN(C)CC4)cc3)nc2n1-c1cccc(C(C)(C)O)n1 [AZD1775] was tested, and the “combination Emax” value [1, 3] was 0.956 and the Bliss excess [2, 3] was -0.0493.

`CC(=O)c1c(C)c2cnc(Nc3ccc(N4CCNCC4)cn3)nc2n(C2CCCC2)c1=O` [Palbociclib] + Cn1cnc2c(F)c(Nc3ccc(Br)cc3Cl)c(C(=O)NOCCO)cc21 [Selumetinib] was tested, and the “combination Emax” value [1, 4] was 0.583 and the Bliss excess [2, 4] was -0.0483.

With `C[C@@H](Oc1cc(-c2cnn(C3CCNCC3)c2)cnc1N)c1c(Cl)ccc(F)c1Cl` [Crizotinib] + Cn1cnc2c(F)c(Nc3ccc(Br)cc3Cl)c(C(=O)NOCCO)cc21 [Selumetinib] the “combination Emax” value [1, 4] was 0.752 and the Bliss excess [2, 4] was -0.0663.

In the case of `CS(=O)(=O)CCNCc1ccc(-c2ccc3ncnc(Nc4ccc(OCc5cccc(F)c5)c(Cl)c4)c3c2)o1` [Lapatinib] + NC1(c2ccc(-c3nc4ccn5c(=O)[nH]nc5c4cc3-c3ccccc3)cc2)CCC1 [MK-2206], the “combination Emax” value [1, 4] is reported as 0.905 and the Bliss excess [2, 4] is reported as 0.0097.

`COc1nnc2ccc(N3CCC(c4ccc(OCCN5CCN(C)C(=O)[C@H]5C)cc4)CC3)nn12` [AZD5153] + CC1(C)CCC(CN2CCN(c3ccc(C(=O)NS(=O)(=O)c4ccc(NCC5CCOCC5)c([N+](=O)[O-])c4)c(Oc4cnc5[nH]ccc5c4)c3)CC2)=C(c2ccc(Cl)cc2)C1 [Venetoclax] was tested, and the “combination Emax” value [1, 5] was 0.671 and the Bliss excess [2, 5] was -0.0463.

`COc1cc2ncnc(Nc3ccc(F)c(Cl)c3)c2cc1OCCCN1CCOCC1` [Gefitinib] + CC(C)n1c(=O)n(C)c2cnc3cc(F)c(-c4ccc(OCCCN5CCCCC5)nc4)cc3c21 [AZD1390] was tested, and the “combination Emax” value [1, 6] was 0.354 and the Bliss excess [2, 6] was -0.0593.

In the case of `Cc1cc2ncnn2cc1Nc1ncc2c(n1)n(C1CCOCC1)c(=O)n2C` [AZD7648] + O=C(c1cc(Cc2n[nH]c(=O)c3ccccc23)ccc1F)N1CCN(C(=O)C2CC2)CC1 [Olaparib], the “combination Emax” value [1, 4] is reported as 0.343 and the Bliss excess [2, 4] is reported as -0.0409.

For `CCc1c2c(nc3ccc(O)cc13)-c1cc3c(c(=O)n1C2)COC(=O)[C@]3(O)CC` [SN-38] + CN(C)CCCOc1ccc(-c2ccc3ncc4c(c3c2)n(C2CCOCC2)c(=O)n4C)cn1 [AZD0156], the “combination Emax” value [1, 7] was 0.908 and the Bliss excess [2, 7] was 0.0615.

With `C[C@@H]1COCCN1c1cc(C2([S@](C)(=N)=O)CC2)nc(-c2ccnc3[nH]ccc23)n1` [AZD6738] + O=C(c1cc(Cc2n[nH]c(=O)c3ccccc23)ccc1F)N1CCN(C(=O)C2CC2)CC1 [Olaparib] the “combination Emax” value [1, 4] was 0.934 and the Bliss excess [2, 4] was -0.0503.

`O=C(c1cc(Cc2n[nH]c(=O)c3ccccc23)ccc1F)N1CCN(C(=O)C2CC2)CC1` [Olaparib] + COc1nnc2ccc(N3CCC(c4ccc(OCCN5CCN(C)C(=O)[C@H]5C)cc4)CC3)nn12 [AZD5153] was tested, and the “combination Emax” value [1, 8] was 0.578 and the Bliss excess [2, 8] was -0.0374.

In the case of `Cc1cc2ncnn2cc1Nc1ncc2c(n1)n(C1CCOCC1)c(=O)n2C` [AZD7648] + COc1cc([C@@H]2c3cc4c(cc3[C@@H](O[C@@H]3O[C@@H]5CO[C@@H](C)O[C@H]5[C@H](O)[C@H]3O)[C@H]3COC(=O)[C@H]23)OCO4)cc(OC)c1O [Etoposide], the “combination Emax” value [1, 4] is reported as 0.823 and the Bliss excess [2, 4] is reported as 0.0866.

`C=CCn1c(=O)c2cnc(Nc3ccc(N4CCN(C)CC4)cc3)nc2n1-c1cccc(C(C)(C)O)n1` [AZD1775] + C1CN(CCC1(C(=O)N[C@@H](CCO)C2=CC=C(C=C2)Cl)N)C3=NC=NC4=C3C=CN4 [Capivasertib] was tested, and the “combination Emax” value [1, 9] was 0.959 and the Bliss excess [2, 9] was -0.0654.

For `CC1(C)CCC(CN2CCN(c3ccc(C(=O)NS(=O)(=O)c4ccc(NCC5CCOCC5)c([N+](=O)[O-])c4)c(Oc4cnc5[nH]ccc5c4)c3)CC2)=C(c2ccc(Cl)cc2)C1` [Venetoclax] + C[C@@H](Nc1cc(F)cc(F)c1)c1cc(C(=O)N(C)C)cc2c(=O)cc(N3CCOCC3)oc12 [AZD8186], the “combination Emax” value [1, 10] was 0.564 and the Bliss excess [2, 10] was -0.0045.

For `CN(CCO)CC[C@H](CSc1ccccc1)Nc1ccc(S(=O)(=O)NC(=O)c2ccc(N3CCC([C@@H](O)c4ccccc4-c4ccc(Cl)cc4)CC3)cc2)cc1S(=O)(=O)C(F)(F)F` [AZD4320] + C[C@@H]1COCCN1C2=NC(=NC(=C2)C3(CC3)[S@](=N)(=O)C)C4=C5C=CNC5=NC=C4 [AZD6738], the “combination Emax” value [1, 11] was 0.773 and the Bliss excess [2, 11] was -0.0427.

With `NC1(C(=O)N[C@@H](CCO)c2ccc(Cl)cc2)CCN(c2ncnc3[nH]ccc23)CC1` [Capivasertib] + Cn1cnc2c(F)c(Nc3ccc(Br)cc3Cl)c(C(=O)NOCCO)cc21 [Selumetinib] the “combination Emax” value [1, 4] was 0.45 and the Bliss excess [2, 4] was -0.0253.

In the case of `Cc1c2c(nn1C)CSCc1cc(n(C)n1)CSc1cc(c3ccccc3c1)OCCCc1c(C(=O)O)n(C)c3c-2c(Cl)ccc13` [AZD5991] + CC1(C)CCC(CN2CCN(c3ccc(C(=O)NS(=O)(=O)c4ccc(NCC5CCOCC5)c([N+](=O)[O-])c4)c(Oc4cnc5[nH]ccc5c4)c3)CC2)=C(c2ccc(Cl)cc2)C1 [Venetoclax], the “combination Emax” value ([1]; first compound max 1 µM, partner max 1 µM, 7x7, may be a limit of the assay) is reported as 1 and the Bliss excess [2, 5] is reported as -0.0069.

In the case of `COc1cc2c(cc1OCCCCCOc1cc3c(cc1OC)C(=O)N1C=C(C)C[C@H]1C=N3)N=C[C@@H]1CC(C)=CN1C2=O` [SG3199] + O=C(c1cc(Cc2n[nH]c(=O)c3ccccc23)ccc1F)N1CCN(C(=O)C2CC2)CC1 [Olaparib], the “combination Emax” value [1, 12] is reported as 0.0822 and the Bliss excess [2, 12] is reported as -0.0531.

For `COc1cccc(OCCCN)c1-c1cc(Nc2cnc(C#N)cn2)n[nH]1` [Prexasertib] + Cc1cc2ncnn2cc1Nc1ncc2c(n1)n(C1CCOCC1)c(=O)n2C [AZD7648], the “combination Emax” value [1, 11] was 0.975 and the Bliss excess [2, 11] was -0.0029.

In the case of `NC1(C(=O)N[C@@H](CCO)c2ccc(Cl)cc2)CCN(c2ncnc3[nH]ccc23)CC1` [Capivasertib] + CCN(CCO)CCCOc1ccc2c(Nc3cc(CC(=O)Nc4cccc(F)c4)[nH]n3)ncnc2c1 [AZD2811], the “combination Emax” value [1, 8] is reported as 0.5 and the Bliss excess [2, 8] is reported as -0.0021.

`CC1(C)CCC(CN2CCN(c3ccc(C(=O)NS(=O)(=O)c4ccc(NCC5CCOCC5)c([N+](=O)[O-])c4)c(Oc4cnc5[nH]ccc5c4)c3)CC2)=C(c2ccc(Cl)cc2)C1` [Venetoclax] + CS(=O)(=O)CCNCc1ccc(-c2ccc3ncnc(Nc4ccc(OCc5cccc(F)c5)c(Cl)c4)c3c2)o1 [Lapatinib] was tested, and the “combination Emax” value [1, 11] was 0.503 and the Bliss excess [2, 11] was -0.0151.

`N#Cc1cnc(Nc2cc(NC[C@H]3CNCCO3)c(C(F)(F)F)cn2)cn1` [SRA737] + Nc1ccn([C@@H]2O[C@H](CO)[C@@H](O)C2(F)F)c(=O)n1 [Gemcitabine] was tested, and the “combination Emax” value [1, 6] was 0.916 and the Bliss excess [2, 6] was 0.111.

`C[C@@H]1COCCN1c1cc(C2([S@](C)(=N)=O)CC2)nc(-c2ccnc3[nH]ccc23)n1` [AZD6738] + C1CC(C1)(C(=O)[O-])C(=O)[O-].N.N.[Pt+2] [Carboplatin] was tested, and the “combination Emax” value [1, 4] was 0.84 and the Bliss excess [2, 4] was -0.0625.

With `C[C@@H](Oc1cc(-c2cnn(C3CCNCC3)c2)cnc1N)c1c(Cl)ccc(F)c1Cl` [Crizotinib] + CC1=C(C(=CC=C1)Cl)NC(=O)C2=CN=C(S2)NC3=CC(=NC(=N3)C)N4CCN(CC4)CCO [Dasatinib] the “combination Emax” value [1, 13] was 0.861 and the Bliss excess [2, 13] was -0.0005.

`CCN(CCO)CCCOc1ccc2c(Nc3cc(CC(=O)Nc4cccc(F)c4)[nH]n3)ncnc2c1` [AZD2811] + C[C@@H]1COCCN1C2=NC(=NC(=C2)C3(CC3)[S@](=N)(=O)C)C4=C5C=CNC5=NC=C4 [AZD6738] was tested, and the “combination Emax” value [1, 11] was 0.956 and the Bliss excess [2, 11] was 0.0016.

With `NC1(C(=O)N[C@@H](CCO)c2ccc(Cl)cc2)CCN(c2ncnc3[nH]ccc23)CC1` [Capivasertib] + COc1nnc2ccc(N3CCC(c4ccc(OCCN5CCN(C)C(=O)[C@H]5C)cc4)CC3)nn12 [AZD5153] the “combination Emax” value [1, 8] was 0.768 and the Bliss excess [2, 8] was -0.0646.

`Cc1nc(Nc2ncc(C(=O)Nc3c(C)cccc3Cl)s2)cc(N2CCN(CCO)CC2)n1` [Dasatinib] + CC(=O)Nc1cccc(-n2c(=O)n(C3CC3)c(=O)c3c(Nc4ccc(I)cc4F)n(C)c(=O)c(C)c32)c1 [Trametinib] was tested, and the “combination Emax” value [1, 14] was 0.432 and the Bliss excess [2, 14] was -0.0131.

`CN(CCO)CC[C@H](CSc1ccccc1)Nc1ccc(S(=O)(=O)NC(=O)c2ccc(N3CCC([C@@H](O)c4ccccc4-c4ccc(Cl)cc4)CC3)cc2)cc1S(=O)(=O)C(F)(F)F` [AZD4320] + Nc1ccn([C@@H]2O[C@H](CO)[C@@H](O)C2(F)F)c(=O)n1 [Gemcitabine] was tested, and the “combination Emax” value [1, 15] was 0.595 and the Bliss excess [2, 15] was -0.0159.
